Laboratory results reported in patent US6472391B2, “Nitrogen-containing heterocyclic compounds” (Millennium Pharmaceuticals, Inc., priority 1996, dated 2002).

Key:
[1] = tested on: Vascular smooth muscle cells; assay: Growth inhibition against smooth muscle cells (PDGF-BB stimulated, XTT method); assay type: cell-based; settings: Sus scrofa, 72 h, pig aorta cells, PDGF-BB 20 ng/ml, 3 days, read-out: Growth Inhibitory effect against smooth muscle cells IC50
Description: Test Example 2 Growth Inhibition Against Smooth Muscle Cells
Vascular smooth muscle cells were isolated from a pig aorta by explantation and used for the test. The cells were put into wells of a 96-well plate (8000 cells/well) and cultured in Dulbecco's modified Eagle's medium (DMEM; Nissui Pharmaceutical Co., Ltd.) containing 10% fetal bovine serum (FBS; Hyclone) for 4 days. Then, the cells were further cultured in DMEM containing 0.1% FBS for 3 days, and were synchronized at the cell growth stationary phase.
To each well was added DMEM containing 0.1% FBS and a test sample at a varied concentration, and the cell growth was brought about by PDGF-BB (SIGMA, final concentration: 20 ng/ml). After culturing for 3 days, the cell growth was measured using the cell growth assay kit (Boehringer Mannheim) according to the XTT method [J. Immunol. Methods, 142, 257-265 (1991)], and the cell growth score was calculated by the following equation.
P100: Absorbance by XTT reagent when stimulated by PDGF-BB
P0: Absorbance by XTT reagent when not stimulated by PDGF-BB
M: Absorbance by XTT reagent after addition of a sample when stimulated by PDGF-BB

human β-PDGF receptor = target: T1, human β-PDGF receptor (Homo sapiens, UniProt P09619); assay: Inhibitory effect on phosphorylation of PDGF receptor; assay type: cell-based; settings: CHO cells expressing human β-PDGF receptor
T1 construct: expressed in transfected cells; host or cells: Chinese hamster ovary cells (CHO)
T1 sequence (P09619 33-1106): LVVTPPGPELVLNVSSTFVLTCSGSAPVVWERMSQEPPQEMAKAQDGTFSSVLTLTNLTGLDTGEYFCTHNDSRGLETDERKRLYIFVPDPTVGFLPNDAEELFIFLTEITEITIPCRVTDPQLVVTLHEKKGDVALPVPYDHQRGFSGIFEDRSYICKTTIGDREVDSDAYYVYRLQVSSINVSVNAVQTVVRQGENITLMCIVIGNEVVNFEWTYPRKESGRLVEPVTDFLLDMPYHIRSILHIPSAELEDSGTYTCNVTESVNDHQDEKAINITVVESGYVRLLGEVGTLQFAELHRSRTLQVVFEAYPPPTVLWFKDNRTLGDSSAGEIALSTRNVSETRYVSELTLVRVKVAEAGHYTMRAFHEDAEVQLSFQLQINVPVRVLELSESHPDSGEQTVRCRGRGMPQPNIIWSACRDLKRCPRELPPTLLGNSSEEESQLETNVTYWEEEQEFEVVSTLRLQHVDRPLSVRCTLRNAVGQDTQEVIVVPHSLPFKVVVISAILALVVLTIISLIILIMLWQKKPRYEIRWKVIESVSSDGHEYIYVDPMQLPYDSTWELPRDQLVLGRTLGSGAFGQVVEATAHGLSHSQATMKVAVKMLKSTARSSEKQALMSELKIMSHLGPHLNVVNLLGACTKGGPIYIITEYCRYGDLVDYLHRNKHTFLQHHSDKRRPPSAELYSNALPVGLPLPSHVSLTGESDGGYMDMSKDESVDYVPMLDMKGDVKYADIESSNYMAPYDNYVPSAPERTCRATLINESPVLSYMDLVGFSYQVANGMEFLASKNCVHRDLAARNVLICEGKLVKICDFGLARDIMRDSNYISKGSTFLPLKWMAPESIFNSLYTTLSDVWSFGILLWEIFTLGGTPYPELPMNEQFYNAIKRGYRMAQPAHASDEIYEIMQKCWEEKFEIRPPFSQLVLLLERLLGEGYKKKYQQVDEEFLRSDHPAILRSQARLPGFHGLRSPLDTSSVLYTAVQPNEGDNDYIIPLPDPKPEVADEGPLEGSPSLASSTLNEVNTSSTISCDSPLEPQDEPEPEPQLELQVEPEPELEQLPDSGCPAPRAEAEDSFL
Description: Test Example 1 Inhibitory Effect on Phosphorylation of PDGF Receptor
The test was carried out according to the method described in the literature [Dah-Shuhn et al., J. Biol. Chem., 266, 413-418 (1991)], using Chinese hamster ovary cells (CHO) wherein human β-PDGF receptor cDNA was introduced and expressed.

Wistar-Kyoto rats = assay: Mesangial proliferative glomerulonephritis model (anti-Thy-1.1 antibody OX-7); assay type: in vivo, rat; settings: per glomerulus, 7th day after OX-7; twice a day for 7 days; normal 1.8 +/− 0.3, solvent-administered 8.7 +/− 0.4
Description: Test Example 5 Activity on a Mesangial Proliferative Glomerulonephritis Model
Anti-rat Thy-1.1 monoclonal antibody OX-7 (Cedarlane) was administered to male Wistar-Kyoto rats (Charles River Japan, 160 g, 6 animals/group) in an amount of 1.0 mg/kg by intravenous administration through the tail vein. A test compound was suspended in a 0.5% solution of methylcellulose and the resulting suspension was administered to each of the rats twice a day for a period of 7 days starting on the day before the administration of OX-7. On the 7th day after the OX-7 administration, when mesangial cell growth and extracellular matrix hypertrophy became prominent, the left kidney of each rat was extirpated, fixed with 20% buffered formalin for 6 hours and wrapped in paraffin, followed by slicing. The obtained pieces were subjected to immune tissue staining using antibody Pd10 (DAKO) against a proliferative cell nuclear antigen. After comparative staining with Methyl Green staining solution using diaminobenzidine as a color developer, the paraffin sections were enclosed. Half of the glomeruli in a kidney piece were observed and the number of the cells in one glomerulus which were positive to the proliferative cell nuclear antigen was calculated. The test for the significance of difference was carried out by the Wilcoxon test.

SMILES | IC50 [1] [nM] | IC50 (human β-PDGF receptor) [nM] | melting point [°C] | Number of cells which are positive to intranuclear antigen of proliferative cells (Wistar-Kyoto rats)
COc1cc2ncnc(N3CCN(C(=O)Nc4ccc(Br)cc4)CC3)c2cc1OC [Compound 45, N-(4-bromophenyl)-4-(6,7-dimethoxy-4-quinazolinyl)-1-piperazinecarboxamide] | 80 | 160 | 223 to 228 | 
COc1cc2ncnc(N3CCN(C(=O)Nc4ccc([N+](=O)[O-])cc4)CC3)c2cc1OC [Compound 77, 4-(6,7-dimethoxy-4-quinazolinyl)-N-(4-nitrophenyl)-1-piperazinecarboxamide] | 100 |  | 272 to 274 | 
COc1cc2ncnc(N3CCN(C(=S)Nc4ccccc4[N+](=O)[O-])CC3)c2cc1OC [Compound 78, 4-(6,7-Dimethoxy-4-quinazolinyl)-N-(2-nitrophenyl)-1-piperazinethiocarboxamide] | 740 | 580 | 177 to 178 | 
COc1cc2ncnc(N3CCN(C(=S)Nc4cccc([N+](=O)[O-])c4)CC3)c2cc1OC [Compound 79, 4-(6,7-Dimethoxy-4-quinazolinyl)-N-(3-nitrophenyl)-1-piperazinethiocarboxamide] | 140 | 120 | 140 to 143 | 
COc1cc2ncnc(N3CCN(C(=S)NCc4ccc5c(c4)OCO5)CC3)c2cc1OC [Compound 208, 4-(6,7-dimethoxy-4-quinazolinyl)-N-(3,4-methylenedioxybenzyl)-1-piperazinethiocarboxamide] |  |  | 113 to 114 | 6.1 +/− 0.9
